Laboratory results: patent US9526915B2, “Methods for regulating cell mitosis by inhibiting serine/threonine phosphatase” (priority 2008, dated 2016)
“Also recorded” adds a separate entry of the source.

Key:
[1] = test system: NB xenografts; assay: Histologic examination of xenografts 24 hours after single i.p. injection; type: in vivo, SCID mice; details: compound 102 1.5 mg/kg, TMZ 80 mg/kg
[2] = test system: DAOY medulloblastoma cells; assay: DAOY medulloblastoma s.c. xenografts in SCID mice; type: in vivo; details: treatment from day 6, by day 23
Method: DAOY medulloblastoma cells were implanted subcutaneously into the flanks of SCID mice. On day 6, mice were divided into 3 groups, one group receiving Compound 100, one group receiving Compound 102, and one group receiving vehicle alone. The subcutaneous tumor masses were measured on day 6, day 13, day 18, and on day 23 when all animals were sacrificed. […] In this model DAOY cells, when untreated, reached their maximum growth about 2 weeks after implantation with slow regression thereafterwards.

[3] = test system: U87MG xenografts; assay: U87MG s.c. xenografts in SCID mice, compound 102 and TMZ; type: in vivo
Method: (§1) 5×10^6 U87MG cells were inoculated s.c. into each flank of 20 SCID mice. When the xenografts were 0.5+/−0.1 cm (day 0), 5 animals each received i.p. vehicle alone days 1-12 (50% DMSO/H20); compound 102 alone at 1.5 mg/kg days 1-3, 5-7, & 9-11; TMZ alone at 80 mg/kg days 4, 8, 12; or both drugs at the same doses and schedules. If xenografts reached 1800 mm^3, animals were sacrificed. […] B, Survival curve combining the data from the study shown in FIG. 12A, with a second identical study involving a total of 10 animals with two xenografts each. Disease-free survival was defined as no recurrence of either xenografts. […] As in 12A, except that xenografts of SH-SY5Y cells were implanted in one flank only and animals were treated with one additional cycle of drugs, i.e., compound 102 on days 13-15, TMZ, on day 16, and compound 102 plus TMZ on the same schedules. […] E, Western blots of U87 cells in culture 24 hours after exposure to compound 102 at 2.5 uM, TMZ at 25 uM or DOX at 2 uM, and compound 102 plus TMZ or DOX. F, Western blots of U373 cells 24 hours after exposure to compound 102 at 2.5 uM, doxorubicin at 2 uM, and both drugs. G, Western blots of U373 cells 24 hours after exposure to TMZ at 25 uM, okadaic acid at 2 nM, and both drugs.
To determine the impact of altering DNA-damage defense mechanisms by inhibiting PP2A on the efficacy of cytotoxic chemotherapy, the effects of compound 102 combined with TMZ, a non-specific DNA-methylating drug, routinely used for the palliative treatment of GBM patients (Prados et al, 2008), were studied. SCID mice bearing s.c. xenografts of either the GBM line U87MG or the neuroblastoma line SH-SY5Y were treated with vehicle alone, compound 102 alone, TMZ alone, or both drugs at the same doses and schedules as when given alone.

[4] = test system: U87MG cells; assay: Cellular and molecular changes in U87MG cells (Western blots, IFS); type: cell-based, human
Method: D, Western blots of U87 lysates: TCTP, pPlk (Tre-210), total Plk, and β-actin. E, IFS of TCTP in U87 cells, F, Western blots p53 (ser-15), pMDM2 (ser-166), and β-actin and G, IFS of p53 (ser-15).
as §1
TCTP is an abundant, highly conserved, multifunctional protein that binds to and stabilizes microtubules before and after mitosis and also exerts potent anti-apoptotic activity (Bommer and Thiele, 2004; Yarm, 2002; Susini et al, 2008) (FIG. 11E).
[…] Akt-1 activation, however, may be anti- or proapoptotic depending on the context of cell signaling (Andrabi et al, 2007).
The effects of compound 102, TMZ, doxorubicin (DOX), a widely used anti-cancer drug that disrupts DNA replication, compound 102 plus TMZ, and compound 102 plus DOX on the amount of pAkt, p53 and MDM2 in U87MG, a cell line with wild-type p53, and in U373, a cell line with mutant p53 (Short et al, 2007) were assessed by Western blots.

[5] = test system: U373 cells; assay: Western blots of U373 cells; type: cell-based, human; details: U373 (mutant p53), 24 hours
Method: as §1

[6] = U87MG, 24 hours, compound 102 2.5 uM, TMZ 25 uM, DOX 2 uM

CC(C)(C)OC(=O)N1CCN(C(=O)C2C(C(=O)O)[C@H]3CC[C@@H]2O3)CC1 (stereo partly shown) [Compound 102]
cells with pyknotic nuclei [1]: 50 % of cells
DAOY subcutaneous tumor mass [2]: marked regression
U87MG xenograft growth/regression ([3]; compound 102 1.5 mg/kg i.p. days 1-3, 5-7, 9-11, TMZ 80 mg/kg days 4, 8, 12): minimally delayed growth; also recorded: slowed growth
time of sacrifice (xenografts reached 1800 mm^3) ([3]; same doses and schedules): 4-5 week
intracellular levels of p53 by immunofluorescence staining ([4]; 24 hour, compound 102 2.5 uM, TMZ 25 uM): reduction
TCTP ([4]; U87MG, 2.5 uM, 24 hour): marked decrease
microtubule and mitotic morphology ([4]; U87MG, 2.5 uM, 24 hour): disordered microtubules and abnormal mitotic figures
pPlk-1 ([4]; U87MG, 2.5 uM, 24 hour): increased
phosphorylated MDM2 ([4]; U87MG, 2.5 uM, 24 hour): increased
MDM2 [4, 6]: increased
p53 [4, 6]: decreased; also recorded: eliminated
pAkt-1 [4, 6]: increased
molecular changes in pAkt-1, p53, and MDM2 compared with U87MG [5]: same molecular changes
